{
  "source": "ChEMBL document CHEMBL1201862",
  "about": "“PubChem BioAssay data set” (2004)",
  "key": {"[1]": {"molecular_target": "T1, Short transient receptor potential channel 4 (Mus musculus, UniProt Q9QUQ5)", "T1 sequence (Q9QUQ5 whole entry)": "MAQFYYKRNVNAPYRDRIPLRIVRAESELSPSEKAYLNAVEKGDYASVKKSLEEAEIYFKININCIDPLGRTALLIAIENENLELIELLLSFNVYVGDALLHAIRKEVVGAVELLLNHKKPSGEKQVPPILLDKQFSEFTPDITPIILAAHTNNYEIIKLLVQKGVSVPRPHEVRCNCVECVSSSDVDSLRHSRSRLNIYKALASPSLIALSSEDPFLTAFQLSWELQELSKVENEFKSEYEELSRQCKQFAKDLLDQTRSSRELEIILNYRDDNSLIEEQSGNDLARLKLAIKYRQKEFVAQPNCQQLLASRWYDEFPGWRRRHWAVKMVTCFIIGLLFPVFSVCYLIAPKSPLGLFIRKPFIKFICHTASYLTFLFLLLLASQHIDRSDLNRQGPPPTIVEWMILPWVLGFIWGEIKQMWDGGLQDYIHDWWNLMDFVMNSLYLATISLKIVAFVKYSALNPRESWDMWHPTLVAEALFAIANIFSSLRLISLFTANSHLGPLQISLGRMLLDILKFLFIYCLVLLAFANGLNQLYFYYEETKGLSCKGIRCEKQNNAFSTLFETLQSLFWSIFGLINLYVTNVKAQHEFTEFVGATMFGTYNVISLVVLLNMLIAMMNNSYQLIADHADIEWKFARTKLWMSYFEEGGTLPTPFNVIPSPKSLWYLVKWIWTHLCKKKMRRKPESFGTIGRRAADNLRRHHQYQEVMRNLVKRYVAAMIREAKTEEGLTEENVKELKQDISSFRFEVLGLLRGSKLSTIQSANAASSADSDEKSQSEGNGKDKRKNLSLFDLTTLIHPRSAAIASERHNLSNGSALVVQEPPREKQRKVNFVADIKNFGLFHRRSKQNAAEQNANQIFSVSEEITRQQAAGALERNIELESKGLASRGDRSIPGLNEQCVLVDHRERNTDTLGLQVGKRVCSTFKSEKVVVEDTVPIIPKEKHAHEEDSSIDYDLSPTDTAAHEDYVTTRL", "test": "calcium entry via TRPC4 opening agents – cell-based, HEK293 TRPC4/mu-opioid, Fluo-4 calcium, dose response (AID 434937)", "type": "functional"}, "Cytochrome P450 2C9": {"molecular_target": "Cytochrome P450 2C9 (Homo sapiens, UniProt P11712)", "sequence (P11712 whole entry)": "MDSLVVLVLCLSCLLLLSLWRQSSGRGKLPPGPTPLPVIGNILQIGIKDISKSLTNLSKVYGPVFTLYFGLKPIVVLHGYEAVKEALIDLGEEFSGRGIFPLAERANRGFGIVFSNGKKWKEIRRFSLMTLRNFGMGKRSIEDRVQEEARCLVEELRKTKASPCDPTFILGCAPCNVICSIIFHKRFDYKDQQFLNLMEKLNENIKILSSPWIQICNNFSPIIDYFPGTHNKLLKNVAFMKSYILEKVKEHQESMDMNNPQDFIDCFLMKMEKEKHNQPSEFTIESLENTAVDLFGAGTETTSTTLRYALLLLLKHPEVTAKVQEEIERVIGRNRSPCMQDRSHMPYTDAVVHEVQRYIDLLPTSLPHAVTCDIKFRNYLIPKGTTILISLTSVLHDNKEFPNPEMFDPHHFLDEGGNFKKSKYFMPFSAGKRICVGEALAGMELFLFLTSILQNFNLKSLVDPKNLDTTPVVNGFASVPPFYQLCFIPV"}, "Cytochrome P450 2D6": {"molecular_target": "Cytochrome P450 2D6 (Homo sapiens, UniProt P10635)", "sequence (P10635 whole entry)": "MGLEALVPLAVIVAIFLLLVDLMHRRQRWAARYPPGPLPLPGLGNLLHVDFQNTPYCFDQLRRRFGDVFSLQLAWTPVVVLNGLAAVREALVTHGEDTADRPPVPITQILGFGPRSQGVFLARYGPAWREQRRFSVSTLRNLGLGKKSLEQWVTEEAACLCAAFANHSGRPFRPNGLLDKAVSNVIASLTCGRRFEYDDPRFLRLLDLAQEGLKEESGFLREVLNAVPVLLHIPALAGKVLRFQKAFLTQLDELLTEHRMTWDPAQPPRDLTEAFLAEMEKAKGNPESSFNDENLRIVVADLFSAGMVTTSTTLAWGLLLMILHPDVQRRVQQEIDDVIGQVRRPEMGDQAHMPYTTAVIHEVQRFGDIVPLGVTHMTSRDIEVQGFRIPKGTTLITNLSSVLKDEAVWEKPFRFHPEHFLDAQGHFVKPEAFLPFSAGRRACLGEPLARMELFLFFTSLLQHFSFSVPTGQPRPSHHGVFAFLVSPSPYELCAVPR"}, "Cytochrome P450 3A4": {"molecular_target": "Cytochrome P450 3A4 (Homo sapiens, UniProt P08684)"}, "Cytochrome P450 2C19": {"molecular_target": "Cytochrome P450 2C19 (Homo sapiens, UniProt P33261)", "sequence (P33261 whole entry)": "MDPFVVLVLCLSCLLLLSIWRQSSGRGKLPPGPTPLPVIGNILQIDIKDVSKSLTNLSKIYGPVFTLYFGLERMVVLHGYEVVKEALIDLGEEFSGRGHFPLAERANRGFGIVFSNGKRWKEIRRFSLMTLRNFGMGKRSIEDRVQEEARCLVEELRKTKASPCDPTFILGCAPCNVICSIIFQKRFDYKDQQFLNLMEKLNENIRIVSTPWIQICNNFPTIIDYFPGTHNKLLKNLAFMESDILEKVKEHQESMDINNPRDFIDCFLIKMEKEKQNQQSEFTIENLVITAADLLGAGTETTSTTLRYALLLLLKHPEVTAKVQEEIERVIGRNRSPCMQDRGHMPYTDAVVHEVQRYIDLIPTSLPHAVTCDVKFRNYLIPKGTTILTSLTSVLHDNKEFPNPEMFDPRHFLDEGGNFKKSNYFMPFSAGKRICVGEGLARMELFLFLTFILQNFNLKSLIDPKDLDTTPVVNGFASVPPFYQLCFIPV", "test": "Cytochrome panel assay with activity outcomes. Panel member name: p450-cyp2c19 Compounds with AC50 equal or less than 10 uM are considered active", "type": "functional", "settings": "read-out: AC50"}, "Vero": {"tested_on": "Vero", "test": "cells", "type": "functional", "settings": "Chlorocebus sabaeus"}, "[2]": {"molecular_target": "T1, Short transient receptor potential channel 4", "test": "block of DAMGO-driven TRPC4 calcium entry – cell-based, HEK293 TRPC4/mu-opioid, Fluo-4 calcium, dose response (AID 434942);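 note: potency of inhibitors blocking the TRPC4 calcium response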", "type": "functional"}, "cells [3]": {"test": "cells", "type": "functional, cell-based"}, "cells [4]": {"test": "cells", "type": "functional, cell-based", "remark": "listed apart in the source"}, "H9c2": {"tested_on": "H9c2", "test": "cells", "type": "functional, cell-based", "settings": "Rattus norvegicus, H9c2, Myocardium"}, "Fatty acid synthase [5]": {"molecular_target": "T2, Fatty acid synthase (Homo sapiens, UniProt P49327)", "T2 sequence (P49327 whole entry)": "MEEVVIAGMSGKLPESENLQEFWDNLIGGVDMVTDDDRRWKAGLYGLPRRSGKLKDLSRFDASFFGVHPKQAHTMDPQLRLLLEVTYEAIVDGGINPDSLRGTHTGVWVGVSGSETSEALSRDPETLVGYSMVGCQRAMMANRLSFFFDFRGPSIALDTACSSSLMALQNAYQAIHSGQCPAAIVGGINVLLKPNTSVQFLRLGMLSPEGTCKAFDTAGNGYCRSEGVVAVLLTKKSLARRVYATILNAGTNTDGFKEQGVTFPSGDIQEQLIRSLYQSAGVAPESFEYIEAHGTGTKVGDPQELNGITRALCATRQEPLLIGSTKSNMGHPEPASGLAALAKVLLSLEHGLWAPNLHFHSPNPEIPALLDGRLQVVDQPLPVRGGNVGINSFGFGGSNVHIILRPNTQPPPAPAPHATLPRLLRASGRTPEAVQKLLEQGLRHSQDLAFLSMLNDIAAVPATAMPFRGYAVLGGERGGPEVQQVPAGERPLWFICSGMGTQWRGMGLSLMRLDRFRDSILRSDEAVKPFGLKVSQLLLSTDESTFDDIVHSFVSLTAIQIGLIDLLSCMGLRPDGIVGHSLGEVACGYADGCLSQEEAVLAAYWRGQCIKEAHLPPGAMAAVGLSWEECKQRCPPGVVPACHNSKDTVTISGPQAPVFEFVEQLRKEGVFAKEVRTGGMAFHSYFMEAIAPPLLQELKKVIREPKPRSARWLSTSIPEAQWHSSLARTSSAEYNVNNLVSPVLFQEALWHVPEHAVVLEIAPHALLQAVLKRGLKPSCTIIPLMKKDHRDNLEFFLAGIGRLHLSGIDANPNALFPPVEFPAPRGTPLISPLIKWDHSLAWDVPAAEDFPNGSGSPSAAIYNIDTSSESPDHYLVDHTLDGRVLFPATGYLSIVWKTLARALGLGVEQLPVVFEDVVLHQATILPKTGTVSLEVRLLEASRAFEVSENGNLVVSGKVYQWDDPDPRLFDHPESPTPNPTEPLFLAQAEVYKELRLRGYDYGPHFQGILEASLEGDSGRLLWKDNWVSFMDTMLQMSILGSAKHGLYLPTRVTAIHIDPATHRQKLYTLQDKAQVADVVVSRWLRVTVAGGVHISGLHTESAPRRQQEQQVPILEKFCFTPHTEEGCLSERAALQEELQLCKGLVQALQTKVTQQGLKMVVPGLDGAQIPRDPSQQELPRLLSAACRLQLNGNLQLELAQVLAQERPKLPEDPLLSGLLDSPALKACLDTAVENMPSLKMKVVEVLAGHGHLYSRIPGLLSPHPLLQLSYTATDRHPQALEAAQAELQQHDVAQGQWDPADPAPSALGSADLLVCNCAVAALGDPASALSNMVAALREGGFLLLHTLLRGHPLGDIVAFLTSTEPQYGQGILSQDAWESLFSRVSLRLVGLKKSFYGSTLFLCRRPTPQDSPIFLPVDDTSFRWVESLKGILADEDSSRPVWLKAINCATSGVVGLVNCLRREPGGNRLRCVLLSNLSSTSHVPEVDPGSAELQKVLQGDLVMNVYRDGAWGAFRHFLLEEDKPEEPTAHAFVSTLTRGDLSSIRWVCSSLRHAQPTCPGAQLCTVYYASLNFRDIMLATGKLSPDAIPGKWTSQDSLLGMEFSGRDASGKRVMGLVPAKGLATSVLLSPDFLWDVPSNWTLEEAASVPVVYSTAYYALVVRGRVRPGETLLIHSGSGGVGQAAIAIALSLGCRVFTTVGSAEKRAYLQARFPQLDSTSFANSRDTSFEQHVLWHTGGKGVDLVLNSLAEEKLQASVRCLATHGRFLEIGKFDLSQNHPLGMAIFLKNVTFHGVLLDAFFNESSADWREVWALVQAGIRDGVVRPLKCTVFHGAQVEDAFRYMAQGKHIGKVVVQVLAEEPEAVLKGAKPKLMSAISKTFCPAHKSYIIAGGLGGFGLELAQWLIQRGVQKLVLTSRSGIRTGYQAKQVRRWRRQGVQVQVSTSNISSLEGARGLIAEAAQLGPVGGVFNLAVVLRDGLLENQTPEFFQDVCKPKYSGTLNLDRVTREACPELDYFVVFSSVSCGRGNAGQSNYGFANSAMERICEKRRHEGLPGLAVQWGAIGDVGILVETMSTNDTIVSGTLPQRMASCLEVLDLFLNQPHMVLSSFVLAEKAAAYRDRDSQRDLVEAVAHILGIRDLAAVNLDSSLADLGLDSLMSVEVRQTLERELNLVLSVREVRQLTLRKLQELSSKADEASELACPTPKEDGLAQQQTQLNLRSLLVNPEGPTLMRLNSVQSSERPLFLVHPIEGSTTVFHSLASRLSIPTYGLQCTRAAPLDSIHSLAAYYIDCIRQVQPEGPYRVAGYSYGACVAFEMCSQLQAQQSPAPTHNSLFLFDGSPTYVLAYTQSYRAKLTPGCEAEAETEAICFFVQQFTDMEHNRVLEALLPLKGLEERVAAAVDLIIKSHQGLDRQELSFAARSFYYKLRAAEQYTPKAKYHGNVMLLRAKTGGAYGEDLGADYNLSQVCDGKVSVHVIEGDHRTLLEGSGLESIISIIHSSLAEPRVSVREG", "test": "inhibition of human FAS-TE enzyme activity – biochemical, kinetic fluorescence intensity, dose response (AID 624326);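 note: rate of fluorescence rise from hydrolysis of a fluorogenic O-methyl fluorescein ester substrate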", "type": "functional"}, "Fatty acid synthase [6]": {"molecular_target": "T2, Fatty acid synthase", "test": "inhibition of human FAS-TE enzyme activity – biochemical, endpoint fluorescence intensity, uHTS hits, dose response (AID 624327);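 note: fluorescence from hydrolysis of an O-methyl fluorescein acyl ester substrate by the enzyme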", "type": "functional"}, "Melanocortin receptor 4": {"molecular_target": "Melanocortin receptor 4 (Homo sapiens, UniProt P32245)", "sequence (P32245 whole entry)": "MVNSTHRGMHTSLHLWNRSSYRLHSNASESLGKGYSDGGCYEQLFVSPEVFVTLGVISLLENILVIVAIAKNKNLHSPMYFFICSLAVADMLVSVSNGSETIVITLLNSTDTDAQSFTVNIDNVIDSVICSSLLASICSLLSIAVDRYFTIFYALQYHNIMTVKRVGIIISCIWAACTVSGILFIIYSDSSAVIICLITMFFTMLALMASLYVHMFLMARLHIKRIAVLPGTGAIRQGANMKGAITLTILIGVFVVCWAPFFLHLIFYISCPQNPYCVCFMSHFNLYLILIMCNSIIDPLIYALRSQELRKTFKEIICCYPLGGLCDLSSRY", "test": "inhibitors of MC4R cAMP signaling – cell-based, TR-FRET, biased antagonists, dose response (AID 602298);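 note: antagonist potency against agonist-stimulated cAMP production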", "type": "functional"}, "[7]": {"test": "cAMP pathway inhibition in counterscreen cell line – TR-FRET cAMP detection, counter-screen for MC4R biased antagonist project, dose response (AID 602305);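 note: U2OS cells stimulated with forskolin near its EC80 as the cAMP inducer; potency is for inhibition of forskolin-stimulated cAMP signaling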", "type": "functional, cell-based"}, "[8]": {"test": "Luminescence Cell-Based Dose Confirmation HTS to Identify Inhibitors of Platelet Dense Granule Release. [Related pubchem assays: 1663 (Primary HTS), 1678 (Summary of Project)]", "type": "functional"}, "[9]": {"molecular_target": "Luciferin 4-monooxygenase (Photinus pyralis, UniProt P08659)", "sequence (P08659 whole entry)": "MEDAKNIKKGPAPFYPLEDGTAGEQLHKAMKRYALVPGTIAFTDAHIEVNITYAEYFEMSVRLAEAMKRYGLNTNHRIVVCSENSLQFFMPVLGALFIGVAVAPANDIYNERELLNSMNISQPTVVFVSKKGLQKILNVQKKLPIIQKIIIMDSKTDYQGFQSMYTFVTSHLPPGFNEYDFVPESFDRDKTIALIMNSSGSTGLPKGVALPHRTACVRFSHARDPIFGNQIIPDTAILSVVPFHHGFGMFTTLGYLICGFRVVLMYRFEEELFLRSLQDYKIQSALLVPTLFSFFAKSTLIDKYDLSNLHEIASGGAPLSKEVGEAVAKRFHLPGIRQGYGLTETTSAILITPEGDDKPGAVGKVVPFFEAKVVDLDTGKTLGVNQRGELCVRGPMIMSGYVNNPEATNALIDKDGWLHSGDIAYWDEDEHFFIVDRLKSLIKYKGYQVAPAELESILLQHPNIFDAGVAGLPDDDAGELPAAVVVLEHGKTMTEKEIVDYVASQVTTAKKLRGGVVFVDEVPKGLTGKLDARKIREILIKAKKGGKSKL", "test": "inhibition of purified Photinus pyralis luciferase – biochemical, luminescence, dose response (AID 1891)"}},
  "note": "Activity calls are given as the source filed them.",
  "data": [
    {"smiles": "Cc1sc2ncnc(NCC(c3ccco3)N(C)C)c2c1C", "note": "(stereo not drawn)", "values": [
      {"measurement": "EC50", "setting": "[1]", "value": "0.841 µM (active)"}
    ]},
    {"smiles": "FC(F)(F)c1ccccc1-c1nccc(N2CCNCC2)n1", "values": [
      {"measurement": "AC50", "setting": "Cytochrome P450 2C9", "value": "inconclusive"}
    ]},
    {"smiles": "COc1ccc(C(=O)c2ccccc2)cc1Br", "values": [
      {"measurement": "AC50", "setting": "Cytochrome P450 2D6", "value": "22.4 µM (inconclusive)"},
      {"measurement": "AC50", "setting": "Cytochrome P450 2C9", "value": "inconclusive"}
    ]},
    {"smiles": "N#Cc1nc(-c2ccc(F)cc2)oc1N1CCCC1", "values": [
      {"measurement": "AC50", "setting": "Cytochrome P450 2C9", "value": "inconclusive"},
      {"measurement": "AC50", "setting": "Cytochrome P450 3A4", "value": "14.1 µM (inconclusive)"},
      {"measurement": "AC50", "setting": "Cytochrome P450 2C19", "value": "14.1 µM (inconclusive)"}
    ]},
    {"smiles": "COc1cc(C(=O)NC(=S)NNC(=O)c2ccc3c(c2)OCO3)cc(OC)c1OC", "values": [
      {"measurement": "CC50", "setting": "Vero", "value": "20.2 µM (active)"}
    ]},
    {"smiles": "COc1ccc(C)cc1N(C(=O)c1snc(C(N)=O)c1N)C(C(=O)NC1CCCCC1)c1ccc(C)o1", "note": "(stereo not drawn)", "values": [
      {"measurement": "EC50", "setting": "[2]", "value": "0.211 µM (active)"}
    ]},
    {"smiles": "CC1CCCN(c2c([N+](=O)[O-])c(=O)oc3ccccc23)C1", "note": "(stereo not drawn)", "values": [
      {"measurement": "EC50", "setting": "cells [3]", "value": "> 29.9 µM (inactive)"},
      {"measurement": "IC50", "setting": "cells [4]", "value": "> 29.9 µM (inactive)"}
    ]},
    {"smiles": "COc1ccc(C2=NOC(COc3ccc4c(C)cc(=O)oc4c3)C2)c(OC)c1", "note": "(stereo not drawn)", "values": [
      {"measurement": "CC50", "setting": "Vero", "value": "7.23 µM (active)"}
    ]},
    {"smiles": "Cc1ccc(-c2nnc3ccc(SCC(=O)N4CCCc5ccccc54)nn23)cc1", "values": [
      {"measurement": "IC50", "setting": "H9c2", "value": "38.4 µM (inactive)"},
      {"measurement": "IC50", "setting": "Fatty acid synthase [5]", "value": "5.68 µM (active)"},
      {"measurement": "IC50", "setting": "Fatty acid synthase [6]", "value": "4.07 µM (active)"}
    ]},
    {"smiles": "Brc1cc2c(cc1COc1ccc(-c3nn[nH]n3)cc1)OCO2", "values": [
      {"measurement": "EC50", "setting": "[2]", "value": "5.31 µM (active)"}
    ]},
    {"smiles": "COc1cc(OC)c2ccc(=O)oc2c1C(CC(=O)N1CCN(c2ccccc2)CC1)c1ccc2c(c1)OCO2", "note": "(stereo not drawn)", "values": [
      {"measurement": "IC50", "setting": "H9c2", "value": "> 79 µM (inactive)"}
    ]},
    {"smiles": "CCN(CC)S(=O)(=O)c1ccc(Cl)c(C(=O)OC2CC(C)OC2=O)c1", "note": "(stereo not drawn)", "values": [
      {"measurement": "IC50", "setting": "Melanocortin receptor 4", "value": "> 64.6 µM (inactive)"},
      {"measurement": "IC50", "setting": "[7]", "value": "> 64.6 µM (inactive)"}
    ]},
    {"smiles": "CC(=O)c1c(C)nn(CC(=O)NC2CCCN(Cc3ccc(CC(C)C)cc3)C2)c1C", "note": "(stereo not drawn)", "values": [
      {"measurement": "EC50", "setting": "[1]", "value": "1.19 µM (active)"},
      {"measurement": "EC50", "setting": "[8]", "value": "> 112 µM (not active)"},
      {"measurement": "EC50", "setting": "[9]", "value": "> 112 µM (not active)"}
    ]},
    {"smiles": "Cn1c(S)nnc1-c1cccc2ccccc12", "values": [
      {"measurement": "EC50", "setting": "[1]", "value": "0.841 µM (active)"}
    ]}
  ]
}
